Assay results taken from patent US10197552B2, “Monitoring cell-to-cell interactions” (Oakland University, priority 2015, dated 2019).

What was measured:
Format in all cases: cell-based, human
[1] = tested on: adhesion of AML cells (KG-1) to HUVECs; test: Number of adherent AML cells on HUVECs in co-culture, flow cytometric analysis; settings: treated KG-1/HUVEC co-cultures as, in comparison to untreated controls; FIG. 15
Procedure: (§1) As illustrated throughout Example 1, acute myeloid leukemia (AML) cells mediate endothelial cell (EC) activation. In this Example, the effects of anti-inflammatories, namely thalidomide and lenalidomide, to prevent AML induced EC activation were tested. KG-1 cells were pre-treated with 100 μM thalidomide or 1 μM lenalidomide (half of total dose) for 1-hour. Co-cultures were then established by adding the pre-treated KG-1 cells (1×10^6 cells) to cultures containing HUVECs (˜80% confluence) with the addition of the second half of the total dose of the respective anti-inflammatories. After 24-hours, E-selectin expression on HUVECs was measured as a marker of EC activation using flow cytometry. Untreated (i.e., no anti-inflammatory added) co-cultures of KG-1 on HUVECs were used as controls. The results are shown in FIG. 14, where the + indicates whether the co-culture was the control, was treated with thalidomide, or was treated with lenalidomide.
It was determined whether thalidomide and lenalidomide were able to reduce EC activation mediated AML cell adhesion. Adherent cells were collected from treated (as described above) and control co-cultures, and the numbers of adherent AML cells in each population were enumerated based on flow cytometric analysis. […]

[2] = tested on: E-selectin expression on HUVECs; test: E-selectin expression on HUVECs in KG-1 co-cultures, flow cytometry (marker of EC activation); settings: KG-1/HUVEC co-culture, 24 hours; KG-1 pre-treated 1 hour with 100 μM thalidomide or 1 μM lenalidomide (half of total dose), second half added to co-culture; vs untreated co-cultures; FIG. 14
Procedure: as §1

[3] = tested on: adhesion of KG-1 cells to activated HUVECs; test: QCM response to KG-1 cell binding on HUVECs activated with different TNF-α concentrations; settings: 25×10^4 KG-1 cells on HUVECs activated by TNF-α at different concentrations; FIGS. 12C, 12D
Procedure: (§2) Next, the EGM-2 medium was replaced by a medium containing 10% FBS and TNF-α with a specified concentration (ranging from 0 ng/ml to […]), allowing the HUVECs to suffer growth and activation up to 20 hours. After the concentration of HL-60 and KG-1 cells reached 5×10^6 cells mL^−1, they were collected from the medium by centrifugation at 1500 g for 5 minutes to remove IMDM, and were re-suspended with EGM-2 medium supplemented with 10% FBS. This was performed to reduce variations of the viscosity of the medium for measurements. The density of these suspension cells was determined with a hemacytometer.
Finally, 100 μL of the cell-suspending solution was added into the measuring chamber. The Δf0 and ΔR1 responses were simultaneously monitored for 22 hours.
These examples confirmed that AML cells adhere to activated HUVECs based on binding with E-selectin. It is possible that the extent of activation of HUVECs, which is closely related to TNF-α concentration, should have an influence on the binding of AML cells. FIGS. 12A and 12B show the QCM responses induced by the addition of KG-1 cells with the same concentration (i.e., 25×10^4) on activated HUVECs after stimulation of TNF-α with different concentrations. […]

HUVECs = test: QCM monitoring of HUVEC activation by TNF-α, with microscope observation
Procedure: The gold QCM consists of a thin AT-cut quartz crystal wafer with a gold electrode on each side (9 MHz, non-polished with ˜1000 Å gold, geometric area is 0.28 cm^2, Beijing Chenjing Electronics Co., Ltd., China). The gold QCM was mounted between two biocompatible silicon O-rings to allow only one side of the gold electrode to be exposed to the liquid. The reaction chamber above the crystal was held with a 1 mL chlorinated polyethylene centrifugal tube. The device, being covered, was placed in a humidified CO2 incubator controlled at 5% CO2 and 37° C. to prevent evaporation from the culture holder.
An RQCM instrument (Maxtek Inc., USA) was used to simultaneously record resonant frequency (f0) and motional resistance (R1) of the QCM electrodes.
After being sterilized with 75% ethanol under UV light for 0.5 hours, the QCM culture-chamber was washed three times with PBS. Then, 500 μL of EGM-2 medium was added and the entire culture-chamber was put into the incubator. As soon as the QCM readout reached a stable baseline, 50 μL of EGM-2 medium containing freshly trypsinized 3×10^4 cells was added. All QCM measurements were performed in a static mode without stirring. The Δf0 and ΔR1 responses were simultaneously monitored in the process of cell attachment and growth in the next 24 hours.
as §2, with “hemacytometer. […]” for “hemacytometer.”

[4] = maximum reported concentration of TNF-α (range 0 to 400 ng ml^−1), 3×10^4 HUVECs on QCM gold electrode

Compound	numbers of adherent AML cells [1]	E-selectin expression on HUVECs [2]	QCM response shifts (|Δf0| and ΔR1 changes) on addition of KG-1 cells [3]	activation of HUVECs (shape-change, microscope images) (HUVECs; 40, 200 and 400 ng mL^−1 TNF-α, FIGS. 5B-5D)	frequency shifts in Stage IV as compared to those in Stage I (HUVECs; [4])	resistance changes in Stage IV as compared to those in Stage I (HUVECs; [4])
Nc1cccc2c1CN(C1CCC(=O)NC1=O)C2=O (centres unmarked) [lenalidomide]	significantly reduce	significant reduction				
O=C1CCC(N2C(=O)c3ccccc3C2=O)C(=O)N1 (centres unmarked) [thalidomide]	significantly reduce	significant reduction				
TNF-α			increased with enhancement of TNF-α concentrations in the range of 2 ng mL^−1-200 ng mL^−1	effectively induce the activation of HUVECs in a dose dependent manner	15%	7%
